# Measurements published in paper PMC6333442, “Conserved allosteric pathways for activation of TRPV3 revealed through engineering vanilloid-sensitivity” (eLife, 2019).
# “And” between values parts separate entries of the source, which are not always exact repeats. Equal values may be shown once.
# How the values were obtained:
# [1] = target: TRPV3-4PM (Mus musculus, UniProt Q8K424, F625L/F656I/F666Y/V587L)
# Description: (§1) All channel constructs were expressed in Xenopus laevis oocytes and studied using the two-electrode voltage clamp technique (TEVC) following 1–4 days of incubation after cRNA injection. The animal care and experimental procedures were performed in accordance with the Guide for the Care and Use of Laboratory Animals and were approved by the Animal Care and Use Committee of the National Institute of Neurological Disorders and Stroke (Animal protocol number 1253–17). Oocytes were removed surgically and incubated with agitation for 1 hr in a solution containing (in mM) 82.5 NaCl, 2.5 KCl, 1 MgCl2, 5 HEPES, pH 7.6 (with NaOH), and collagenase (2 mg/ml; Worthington Biochemical, Lakewood, NJ). Defolliculated oocytes were injected with cRNA for each of the constructs and incubated at 17°C in a solution containing (in mM) 96 NaCl, 2 KCl, 1 MgCl2, 1.8 CaCl2, 5 HEPES, pH 7.6 (with NaOH), and gentamicin (50 μg/ml, GIBCO-BRL, Gaithersburg, MD). Oocyte membrane voltage was controlled using an OC-725C oocyte clamp (Warner Instruments, Hamden, CT). Data were filtered at 1–3 kHz and digitized at 20 kHz using pClamp software (Molecular Devices, Sunnyvale, CA) and a Digidata 1440A digitizer (Axon Instruments). Microelectrode resistances were 0.1–1 MΩ when filled with 3 M KCl. For recording TRP channel currents, the external recording solution contained (in mM) 100 KCl, 10 HEPES, pH 7.6 (with KOH). Experiments were performed at room temperature (~22°C), except as indicated otherwise. […] Current time courses were obtained by stepping membrane voltage every 2 s from a holding potential of 0 mV to either −60 or +60 mV for 100 ms, and plotting the mean steady-state current at the end of each voltage step as a function of total recording time. I-V relations were obtained similarly, but voltage was stepped every 2 s to a different value, in 10 mV increments and starting at −60 mV.
# [2] = target: TRPV3-A606V (Mus musculus, UniProt Q8K424, A606V)
# Chain of TRPV3-A606V (Q8K424 whole entry A606V): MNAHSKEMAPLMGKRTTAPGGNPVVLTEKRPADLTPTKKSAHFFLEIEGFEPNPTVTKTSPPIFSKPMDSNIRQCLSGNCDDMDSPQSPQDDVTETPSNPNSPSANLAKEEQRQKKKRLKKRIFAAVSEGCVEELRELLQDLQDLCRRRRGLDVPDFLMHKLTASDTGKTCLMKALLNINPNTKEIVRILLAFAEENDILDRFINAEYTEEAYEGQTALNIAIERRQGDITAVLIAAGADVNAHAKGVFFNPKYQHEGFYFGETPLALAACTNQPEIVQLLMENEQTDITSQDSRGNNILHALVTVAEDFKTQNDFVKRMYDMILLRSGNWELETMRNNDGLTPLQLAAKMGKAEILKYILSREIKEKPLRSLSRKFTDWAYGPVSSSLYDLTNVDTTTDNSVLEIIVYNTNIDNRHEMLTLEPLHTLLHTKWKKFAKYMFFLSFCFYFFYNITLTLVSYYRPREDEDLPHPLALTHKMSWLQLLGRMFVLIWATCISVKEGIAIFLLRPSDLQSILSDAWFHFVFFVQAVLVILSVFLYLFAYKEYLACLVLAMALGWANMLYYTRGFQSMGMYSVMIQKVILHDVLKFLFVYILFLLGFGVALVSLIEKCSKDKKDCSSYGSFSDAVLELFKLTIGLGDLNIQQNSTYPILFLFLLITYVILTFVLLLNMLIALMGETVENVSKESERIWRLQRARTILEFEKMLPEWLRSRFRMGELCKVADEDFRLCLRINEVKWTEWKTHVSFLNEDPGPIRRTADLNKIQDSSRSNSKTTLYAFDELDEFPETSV
# Description: as §1
# [3] = target: TRPV3-V587L (Mus musculus, UniProt Q8K424, V587L); conditions: -60 mV
# Chain of TRPV3-V587L (Q8K424 whole entry V587L): as the sequence (Q8K424 whole entry A606V) above, with V587L, V606A counted along it
# Description: as §1
# [4] = target: T1, TRPV3-5PM (Mus musculus, UniProt Q8K424, A606V/F625L/F656I/F666Y/V587L); format: cell-based
# T1 construct: expressed in transfected cells; host or cells: Xenopus laevis oocytes
# T1 sequence (Q8K424 1-791 V587L/A606V/F625L/F656I/F666Y): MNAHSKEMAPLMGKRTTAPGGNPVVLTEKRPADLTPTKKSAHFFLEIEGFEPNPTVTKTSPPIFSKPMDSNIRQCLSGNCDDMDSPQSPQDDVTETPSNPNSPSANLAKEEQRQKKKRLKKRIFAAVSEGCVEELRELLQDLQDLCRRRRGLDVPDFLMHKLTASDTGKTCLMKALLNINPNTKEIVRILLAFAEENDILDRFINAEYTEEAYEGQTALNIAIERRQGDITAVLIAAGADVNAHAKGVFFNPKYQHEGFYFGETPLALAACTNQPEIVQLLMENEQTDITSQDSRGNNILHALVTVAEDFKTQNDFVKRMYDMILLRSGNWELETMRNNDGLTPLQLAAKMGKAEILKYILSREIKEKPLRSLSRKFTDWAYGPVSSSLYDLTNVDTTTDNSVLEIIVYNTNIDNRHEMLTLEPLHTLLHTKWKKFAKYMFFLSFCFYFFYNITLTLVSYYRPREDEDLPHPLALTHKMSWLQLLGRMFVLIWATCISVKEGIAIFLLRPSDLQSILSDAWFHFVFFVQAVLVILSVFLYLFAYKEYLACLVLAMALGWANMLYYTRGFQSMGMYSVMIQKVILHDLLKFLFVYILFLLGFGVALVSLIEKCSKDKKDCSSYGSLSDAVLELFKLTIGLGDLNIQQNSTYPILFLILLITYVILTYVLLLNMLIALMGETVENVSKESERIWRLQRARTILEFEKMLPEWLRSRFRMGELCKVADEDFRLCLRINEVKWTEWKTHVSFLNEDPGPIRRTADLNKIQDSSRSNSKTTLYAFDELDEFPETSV
# Description: as §1
# [5] = target: T2, rat TRPV2-4M (Rattus norvegicus, UniProt Q9WUD2, F472S/L507M/L510T/Q530E); experiment: Two-electrode voltage clamp, TRPV2-4M in oocytes; format: cell-based; conditions: RTx 100 nM, room temperature, ±60 mV
# T2 construct: expressed in transfected cells; host or cells: Xenopus laevis oocytes
# T2 sequence (Q9WUD2 1-761 F472S/L507M/L510T/Q530E): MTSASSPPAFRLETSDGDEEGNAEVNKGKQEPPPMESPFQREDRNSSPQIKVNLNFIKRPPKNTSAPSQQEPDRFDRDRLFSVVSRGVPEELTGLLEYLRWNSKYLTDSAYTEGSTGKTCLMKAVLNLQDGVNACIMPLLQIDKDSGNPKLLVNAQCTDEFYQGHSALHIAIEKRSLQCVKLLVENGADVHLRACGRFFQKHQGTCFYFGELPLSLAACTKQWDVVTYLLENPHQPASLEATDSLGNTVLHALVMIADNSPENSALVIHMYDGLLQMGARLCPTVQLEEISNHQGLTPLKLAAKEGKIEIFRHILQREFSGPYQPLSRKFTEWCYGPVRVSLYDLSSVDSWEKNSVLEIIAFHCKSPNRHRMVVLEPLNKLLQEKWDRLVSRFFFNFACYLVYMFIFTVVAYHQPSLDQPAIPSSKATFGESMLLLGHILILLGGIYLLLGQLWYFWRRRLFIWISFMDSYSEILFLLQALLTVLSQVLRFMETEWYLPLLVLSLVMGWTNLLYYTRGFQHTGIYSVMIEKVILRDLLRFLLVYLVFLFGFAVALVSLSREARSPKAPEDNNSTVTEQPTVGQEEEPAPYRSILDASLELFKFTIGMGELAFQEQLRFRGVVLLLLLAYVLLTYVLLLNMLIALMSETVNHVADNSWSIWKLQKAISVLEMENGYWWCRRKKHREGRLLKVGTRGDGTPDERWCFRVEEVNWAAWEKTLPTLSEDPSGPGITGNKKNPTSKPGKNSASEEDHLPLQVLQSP
# Description: (§2) All channel constructs were expressed in Xenopus laevis oocytes and studied using the two-electrode voltage clamp technique (TEVC) following 1–4 days of incubation after cRNA injection. The animal care and experimental procedures were performed in accordance with the Guide for the Care and Use of Laboratory Animals and were approved by the Animal Care and Use Committee of the National Institute of Neurological Disorders and Stroke (Animal protocol number 1253–17). Oocytes were removed surgically and incubated with agitation for 1 hr in a solution containing (in mM) 82.5 NaCl, 2.5 KCl, 1 MgCl2, 5 HEPES, pH 7.6 (with NaOH), and collagenase (2 mg/ml; Worthington Biochemical, Lakewood, NJ). Defolliculated oocytes were injected with cRNA for each of the constructs and incubated at 17°C in a solution containing (in mM) 96 NaCl, 2 KCl, 1 MgCl2, 1.8 CaCl2, 5 HEPES, pH 7.6 (with NaOH), and gentamicin (50 μg/ml, GIBCO-BRL, Gaithersburg, MD). Oocyte membrane voltage was controlled using an OC-725C oocyte clamp (Warner Instruments, Hamden, CT). Data were filtered at 1–3 kHz and digitized at 20 kHz using pClamp software (Molecular Devices, Sunnyvale, CA) and a Digidata 1440A digitizer (Axon Instruments). Microelectrode resistances were 0.1–1 MΩ when filled with 3 M KCl. For recording TRP channel currents, the external recording solution contained (in mM) 100 KCl, 10 HEPES, pH 7.6 (with KOH). […]
# [6] = system: TRPV3-6M + I595L, K611D, L635F, L639M or Y650F; experiment: Two-electrode voltage clamp, TRPV3-6M with individual pore mutations (weak RTx responders); format: cell-based, mouse; conditions: RTx 100 nM, room temperature; smaller than responses to 2-APB
# Description: as §2
# [7] = system: TRPV1; set-up: method as in Zhang et al., 2016; conditions: ref Zhang et al., 2016; cited from earlier work
# Chain of TRPV3-4PM (Q8K424 whole entry V587L/F625L/F656I/F666Y): as the sequence (Q8K424 whole entry A606V) above, with V587L, V606A, F625L, F656I, F666Y counted along it
Structure (SMILES),"s (slope) of Hill fit, 2-APB concentration-response ([1]; -60 mV)",shift in the apparent affinity for 2-APB ([1]; relative to WT TRPV3),"s (slope) of Hill fit, 2-APB concentration-response ([2]; -60 mV)","EC50 ([2]; read-out: apparent affinity (EC50) for activation by 2-APB, -60 mV, room temperature, Hill fit)",increase in the apparent affinity for 2-APB ([2]; relative to WT TRPV3),"s (slope) of Hill fit, 2-APB concentration-response [3]","EC50 ([3]; read-out: apparent affinity (EC50) for activation by 2-APB, room temperature, Hill fit)",increase in the apparent affinity for 2-APB [4],"s (slope) of Hill fit, 2-APB concentration-response [4]",EC50 ([4]; read-out: apparent affinity (EC50) for activation by 2-APB),channel activation (current response) [5],channel activation (current response) [6],saturating concentration of RTx [7]
"NCCOB(c1ccccc1)c1ccccc1 [2-APB, 2-aminoethoxydiphenyl borate]",1.84,~ 2 fold and 2 fold,2.72,132 ± 7 µM,~ 3.5 fold and 3.5 fold,2.28,443 ± 13 µM,20 fold and > 20 fold and ~ 20 fold,1.32,19 ± 2 µM,–,–,–
"C=C(C)[C@]12C[C@@H](C)[C@@]34O[C@](Cc5ccccc5)(O[C@@H]1[C@@H]3C=C(COC(=O)Cc1ccc(O)c(OC)c1)C[C@]1(O)C(=O)C(C)=C[C@@H]41)O2 [RTx, resiniferatoxin]",–,–,–,–,–,–,–,–,–,–,robust responses,detectable responses,100 nM
